Conditions: transnasal iontophoresis +3.0 mA, 60 minutes; exsanguinated rabbits
Method: The drug was administered by two nasal electrodes that were each deep inserted in the nasal passages. The receptor electrode was positioned at the back of the animal's head. The animal was prior to delivery exsanguinated so that drug transport via the systemic compartment to the brain cannot occur.
The receptor electrode used in the experiments was saturated with a 0.9% NaCl solution. The iontophoresis apparatus used in these experiment was an Endomed 581 (Enraf Nonius, Delft, The Netherlands) iontophoresis device.
Seven of the nine animals were treated “actively” by means of transnasal iontophoresis. A medium frequency, interrupted direct current with a strength of +3.0 mA was applied to the electrodes immediately after the exsanguination was completed. The remaining two animals functioned as controls of the method and no current was supplied to their electrodes. The experiment lasted 60 minutes.

Cl.Nc1c2c(nc3ccccc13)CCCC2.O [Tacrine hydrochloride, 9-amino-1,2,3,4-tetrahydroacridine hydrochloride monohydrate]
migration distance under the applied electric field: 5-6 cm

From US7033598B2, “Methods and apparatus for enhanced and controlled delivery of a biologically active agent into the central nervous system of a mammal” (Intrabrain International N.V., priority 1995, dated 2006)
